pIC50: −log10 of the molar value. The source made the active and inactive calls.
Assays:
[1] = target: T1, Ubiquitin-conjugating enzyme E2 N (Homo sapiens, UniProt P61088); type: functional
T1 sequence (P61088 whole entry): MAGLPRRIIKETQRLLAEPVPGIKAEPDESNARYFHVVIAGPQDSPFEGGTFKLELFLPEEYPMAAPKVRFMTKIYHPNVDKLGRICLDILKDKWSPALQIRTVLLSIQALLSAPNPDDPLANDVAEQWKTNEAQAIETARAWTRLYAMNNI

Prothrombin = Prothrombin (Bos taurus, UniProt P00735); experiment: thrombin inhibition, dose response, biochemical, fluorescence polarization, uHTS hits (AID 602369); type: functional
[2] = target: T2, DNA repair protein RAD52 homolog (Homo sapiens, UniProt P43351); type: functional, biochemical
T2 sequence (P43351 whole entry): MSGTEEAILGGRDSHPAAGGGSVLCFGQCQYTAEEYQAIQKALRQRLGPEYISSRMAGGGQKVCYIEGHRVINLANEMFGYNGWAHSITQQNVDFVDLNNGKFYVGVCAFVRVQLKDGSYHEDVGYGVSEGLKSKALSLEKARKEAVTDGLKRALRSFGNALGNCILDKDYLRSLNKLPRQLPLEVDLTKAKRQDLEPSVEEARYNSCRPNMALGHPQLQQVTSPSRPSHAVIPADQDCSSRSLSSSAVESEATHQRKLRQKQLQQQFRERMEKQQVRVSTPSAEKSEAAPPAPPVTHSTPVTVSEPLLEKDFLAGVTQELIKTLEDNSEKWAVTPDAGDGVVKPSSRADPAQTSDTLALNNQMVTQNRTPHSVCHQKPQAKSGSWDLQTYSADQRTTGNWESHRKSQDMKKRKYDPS

[3] = target: Heat shock protein HSP 90-alpha (Homo sapiens, UniProt P07900); type: functional, organism-based
[4] = target: T1, Ubiquitin-conjugating enzyme E2 N; type: functional; remark: listed apart in the source
[5] = inhibitors of firefly luciferase expression or activity, dose response, H4 neuroglioma cells, luminescence (AID 1990); type: functional, cell-based
[6] = target: T3, Apoptotic protease-activating factor 1 (Homo sapiens, UniProt O14727); type: functional
T3 sequence (O14727 whole entry): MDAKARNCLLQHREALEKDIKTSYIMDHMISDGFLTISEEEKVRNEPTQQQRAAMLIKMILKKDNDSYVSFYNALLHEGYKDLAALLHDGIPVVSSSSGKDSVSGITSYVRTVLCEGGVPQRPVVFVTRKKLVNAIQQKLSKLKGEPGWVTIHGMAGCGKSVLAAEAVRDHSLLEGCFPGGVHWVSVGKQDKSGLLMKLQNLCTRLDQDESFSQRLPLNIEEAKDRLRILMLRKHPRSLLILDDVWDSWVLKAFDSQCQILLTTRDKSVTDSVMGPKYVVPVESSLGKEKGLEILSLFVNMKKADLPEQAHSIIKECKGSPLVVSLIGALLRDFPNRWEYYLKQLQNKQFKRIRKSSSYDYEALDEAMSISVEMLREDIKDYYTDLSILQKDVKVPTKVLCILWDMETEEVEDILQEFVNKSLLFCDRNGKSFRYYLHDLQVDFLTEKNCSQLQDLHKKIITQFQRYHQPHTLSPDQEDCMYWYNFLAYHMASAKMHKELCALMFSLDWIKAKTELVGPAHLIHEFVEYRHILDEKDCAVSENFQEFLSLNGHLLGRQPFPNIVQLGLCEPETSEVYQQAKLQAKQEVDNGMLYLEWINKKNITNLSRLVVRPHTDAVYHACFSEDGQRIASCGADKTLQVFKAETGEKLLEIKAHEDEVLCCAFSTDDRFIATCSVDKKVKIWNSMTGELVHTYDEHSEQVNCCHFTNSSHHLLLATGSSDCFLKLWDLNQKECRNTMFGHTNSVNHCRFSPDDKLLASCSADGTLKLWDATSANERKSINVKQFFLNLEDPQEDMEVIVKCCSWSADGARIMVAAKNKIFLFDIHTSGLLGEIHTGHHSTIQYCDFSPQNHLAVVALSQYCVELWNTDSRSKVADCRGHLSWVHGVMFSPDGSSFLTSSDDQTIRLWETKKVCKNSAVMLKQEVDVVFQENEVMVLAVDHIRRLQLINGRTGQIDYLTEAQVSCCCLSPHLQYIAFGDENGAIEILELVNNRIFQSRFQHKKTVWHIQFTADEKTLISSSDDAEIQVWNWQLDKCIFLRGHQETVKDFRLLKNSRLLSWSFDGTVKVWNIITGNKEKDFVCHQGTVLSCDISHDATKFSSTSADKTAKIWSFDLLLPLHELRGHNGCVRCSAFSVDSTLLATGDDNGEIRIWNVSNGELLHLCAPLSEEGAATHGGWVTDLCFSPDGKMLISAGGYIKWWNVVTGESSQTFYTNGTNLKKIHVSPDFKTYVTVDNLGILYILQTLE

Bcl-2-related protein A1 = target: T4, Bcl-2-related protein A1 (Mus musculus, UniProt Q07440); type: functional;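 also: confirmatory dose–response counterscreen on Bfl-1, used to check hits from a UBC13 polyubiquitin inhibitor campaign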
T4 sequence (Q07440 whole entry): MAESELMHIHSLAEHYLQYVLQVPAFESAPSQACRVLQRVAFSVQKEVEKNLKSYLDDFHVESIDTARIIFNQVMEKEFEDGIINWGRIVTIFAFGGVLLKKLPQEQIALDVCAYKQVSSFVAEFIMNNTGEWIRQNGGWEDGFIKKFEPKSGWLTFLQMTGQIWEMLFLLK

[7] = target: 72 kDa type IV collagenase (Homo sapiens, UniProt P08253); experiment: Dose Response validation of uHTS RPN11 inhibitor hits using a MMP-2 Fluorescence assay.; type: functional
Sequence of 72 kDa type IV collagenase (P08253 whole entry): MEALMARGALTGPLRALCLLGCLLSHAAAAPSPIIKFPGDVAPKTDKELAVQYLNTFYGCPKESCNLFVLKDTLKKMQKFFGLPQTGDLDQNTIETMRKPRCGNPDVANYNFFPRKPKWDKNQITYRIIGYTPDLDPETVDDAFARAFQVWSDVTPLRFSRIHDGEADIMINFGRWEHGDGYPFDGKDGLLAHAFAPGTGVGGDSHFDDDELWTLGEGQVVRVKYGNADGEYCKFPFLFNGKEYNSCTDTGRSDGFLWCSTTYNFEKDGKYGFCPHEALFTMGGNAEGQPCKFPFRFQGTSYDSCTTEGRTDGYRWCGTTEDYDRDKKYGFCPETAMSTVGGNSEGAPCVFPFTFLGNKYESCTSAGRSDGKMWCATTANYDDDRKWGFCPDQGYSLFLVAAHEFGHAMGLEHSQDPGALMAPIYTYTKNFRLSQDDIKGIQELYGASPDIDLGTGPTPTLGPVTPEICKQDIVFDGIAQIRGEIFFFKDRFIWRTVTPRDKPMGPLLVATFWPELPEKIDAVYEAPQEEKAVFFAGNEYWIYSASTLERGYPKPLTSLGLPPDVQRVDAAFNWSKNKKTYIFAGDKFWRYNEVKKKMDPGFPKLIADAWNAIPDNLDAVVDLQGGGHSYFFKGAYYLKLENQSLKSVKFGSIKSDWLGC

[8] = inhibitors of SNCA 5'UTR-driven reporter translation, confirmation, H4 neuroglioma cells, luminescence (AID 1988); type: functional, cell-based
[9] = target: 26S proteasome non-ATPase regulatory subunit 14 (Homo sapiens, UniProt O00487); experiment: inhibition of proteasome subunit RPN11 – biochemical, fluorescence polarization, uHTS hits, confirmation (AID 602368); type: functional
Sequence of 26S proteasome non-ATPase regulatory subunit 14 (O00487 whole entry): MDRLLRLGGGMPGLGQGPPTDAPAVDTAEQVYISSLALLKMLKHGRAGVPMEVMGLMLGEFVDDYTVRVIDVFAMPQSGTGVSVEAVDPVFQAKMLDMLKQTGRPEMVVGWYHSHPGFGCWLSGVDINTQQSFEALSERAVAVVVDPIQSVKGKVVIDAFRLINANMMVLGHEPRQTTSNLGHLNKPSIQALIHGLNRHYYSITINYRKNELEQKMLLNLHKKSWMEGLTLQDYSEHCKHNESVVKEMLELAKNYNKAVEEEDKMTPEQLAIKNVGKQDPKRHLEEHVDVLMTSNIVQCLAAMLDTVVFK

[10] = target: T5, Neuropeptides B/W receptor type 1 (Homo sapiens, UniProt P48145); experiment: GPR7 antagonist potency, late-stage follow-up, cell-based, fluorescence, dose response, set 5 (AID 588566); type: functional
T5 sequence (P48145 whole entry): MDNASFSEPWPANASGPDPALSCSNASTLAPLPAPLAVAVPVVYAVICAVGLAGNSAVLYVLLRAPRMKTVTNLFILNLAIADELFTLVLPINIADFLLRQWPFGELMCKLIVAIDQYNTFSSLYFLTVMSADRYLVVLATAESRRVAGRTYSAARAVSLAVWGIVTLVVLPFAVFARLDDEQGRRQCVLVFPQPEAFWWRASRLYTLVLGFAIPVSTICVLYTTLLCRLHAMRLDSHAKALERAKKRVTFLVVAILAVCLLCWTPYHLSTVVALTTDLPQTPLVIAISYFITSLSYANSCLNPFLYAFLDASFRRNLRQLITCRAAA

[11] = target: Melanin-concentrating hormone receptor 1 (Homo sapiens, UniProt Q99705); experiment: Late-stage fluorescence-based counterscreen for antagonists of the G-protein coupled receptor 7 (GPR7): cell-based dose response assay to identify antagonists of the melanin-concentrating hormone receptor 1 (MCHR1) Set 5.; type: functional
Sequence of Melanin-concentrating hormone receptor 1 (Q99705 whole entry): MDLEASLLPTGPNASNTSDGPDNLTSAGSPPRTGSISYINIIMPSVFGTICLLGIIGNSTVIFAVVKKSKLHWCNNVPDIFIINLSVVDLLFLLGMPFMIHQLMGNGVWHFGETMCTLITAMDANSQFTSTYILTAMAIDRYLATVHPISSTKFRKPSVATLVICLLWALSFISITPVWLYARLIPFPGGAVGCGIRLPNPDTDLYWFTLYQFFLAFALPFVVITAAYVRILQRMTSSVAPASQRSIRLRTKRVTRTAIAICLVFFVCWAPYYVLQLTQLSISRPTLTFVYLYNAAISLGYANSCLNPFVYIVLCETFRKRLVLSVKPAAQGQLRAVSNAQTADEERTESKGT

[12] = target: Benomyl/methotrexate resistance protein (Candida albicans, UniProt P28873); experiment: CaMdr1 efflux pump inhibitor potency, dose response, singleplex, Cherry Pick1 hits (AID 588608); type: functional
Sequence of Benomyl/methotrexate resistance protein (P28873 whole entry): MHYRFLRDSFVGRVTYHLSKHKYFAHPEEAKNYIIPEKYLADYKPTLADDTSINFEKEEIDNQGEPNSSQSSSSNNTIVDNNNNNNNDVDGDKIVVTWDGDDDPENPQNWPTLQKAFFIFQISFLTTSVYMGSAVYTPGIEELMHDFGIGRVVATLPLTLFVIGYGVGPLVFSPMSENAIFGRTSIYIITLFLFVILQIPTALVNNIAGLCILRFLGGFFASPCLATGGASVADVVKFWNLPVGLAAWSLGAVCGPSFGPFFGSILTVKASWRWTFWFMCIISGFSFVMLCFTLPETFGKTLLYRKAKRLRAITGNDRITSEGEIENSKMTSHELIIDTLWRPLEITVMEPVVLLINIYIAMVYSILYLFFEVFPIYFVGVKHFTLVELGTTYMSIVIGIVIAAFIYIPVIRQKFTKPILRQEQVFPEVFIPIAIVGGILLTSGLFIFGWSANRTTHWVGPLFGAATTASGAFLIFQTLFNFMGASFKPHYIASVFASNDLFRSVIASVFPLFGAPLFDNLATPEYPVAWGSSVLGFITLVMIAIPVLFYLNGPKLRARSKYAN

[13] = target: T6, Heat shock factor protein 1 (Mus musculus, UniProt P38532); experiment: HSF1 potentiators in luciferase reporter cells, confirmation, cell-based, NIH3T3, luminescence, dose retest (AID 435004); type: functional;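 also: stress induced by proteasome inhibitor MG132 added 30 min after compound; luciferase reporter driven by HSF1 response element in NIH3T3 cells; actives raise luminescence as potentiators of the MG132 stress response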
T6 sequence (P38532 whole entry): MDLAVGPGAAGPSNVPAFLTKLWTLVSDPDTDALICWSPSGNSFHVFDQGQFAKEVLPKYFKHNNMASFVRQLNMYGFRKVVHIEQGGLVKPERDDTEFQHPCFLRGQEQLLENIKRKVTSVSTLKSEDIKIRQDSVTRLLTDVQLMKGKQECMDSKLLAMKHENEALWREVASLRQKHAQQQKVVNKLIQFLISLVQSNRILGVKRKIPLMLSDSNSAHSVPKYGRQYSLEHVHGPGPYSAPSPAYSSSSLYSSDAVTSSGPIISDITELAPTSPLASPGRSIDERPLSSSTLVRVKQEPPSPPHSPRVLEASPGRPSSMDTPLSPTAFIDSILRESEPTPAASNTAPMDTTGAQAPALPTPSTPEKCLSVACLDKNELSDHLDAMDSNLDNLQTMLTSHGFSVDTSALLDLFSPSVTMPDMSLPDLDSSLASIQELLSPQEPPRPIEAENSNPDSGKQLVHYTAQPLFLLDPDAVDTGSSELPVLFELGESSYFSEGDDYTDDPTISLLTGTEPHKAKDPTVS

HEK293 [14] = experiment: cells; type: functional, cell-based; details: Homo sapiens
Beta-galactosidase = Beta-galactosidase (Escherichia coli, UniProt Q8VNN2); type: functional
Sequence of Beta-galactosidase (Q8VNN2 whole entry): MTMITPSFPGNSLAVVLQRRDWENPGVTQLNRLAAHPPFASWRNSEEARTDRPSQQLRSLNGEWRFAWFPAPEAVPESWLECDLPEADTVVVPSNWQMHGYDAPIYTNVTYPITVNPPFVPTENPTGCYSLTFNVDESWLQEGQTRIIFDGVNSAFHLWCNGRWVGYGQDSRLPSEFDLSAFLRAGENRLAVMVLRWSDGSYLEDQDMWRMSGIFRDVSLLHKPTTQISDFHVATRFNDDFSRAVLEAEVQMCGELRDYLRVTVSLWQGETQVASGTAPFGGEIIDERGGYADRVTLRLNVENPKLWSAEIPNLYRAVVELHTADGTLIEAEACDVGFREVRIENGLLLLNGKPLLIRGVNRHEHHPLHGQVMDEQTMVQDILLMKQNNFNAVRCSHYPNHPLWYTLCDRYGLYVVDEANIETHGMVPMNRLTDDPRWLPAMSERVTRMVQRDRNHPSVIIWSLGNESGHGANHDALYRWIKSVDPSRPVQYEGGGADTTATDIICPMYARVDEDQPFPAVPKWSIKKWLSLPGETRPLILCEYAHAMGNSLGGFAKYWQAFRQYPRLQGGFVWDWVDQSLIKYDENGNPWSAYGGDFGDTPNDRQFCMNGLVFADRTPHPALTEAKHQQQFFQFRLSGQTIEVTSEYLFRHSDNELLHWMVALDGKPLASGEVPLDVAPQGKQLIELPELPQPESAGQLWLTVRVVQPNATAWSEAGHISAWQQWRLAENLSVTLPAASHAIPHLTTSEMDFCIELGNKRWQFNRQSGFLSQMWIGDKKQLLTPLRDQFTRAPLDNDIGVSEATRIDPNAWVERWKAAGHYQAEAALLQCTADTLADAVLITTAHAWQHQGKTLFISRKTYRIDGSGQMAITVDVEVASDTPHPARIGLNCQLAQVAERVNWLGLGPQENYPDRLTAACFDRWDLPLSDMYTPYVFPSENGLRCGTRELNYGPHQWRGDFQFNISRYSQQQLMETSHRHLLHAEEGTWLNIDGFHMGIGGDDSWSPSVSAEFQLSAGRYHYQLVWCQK

[15] = NIH-3T3 fibroblast cytotoxicity, dose response, cytotoxicity control for antifungal single agent project, cell-based, Alamar Blue, dry powder (AID 602188); type: functional
[16] = target: Nucleotide-binding oligomerization domain-containing protein 2 (Homo sapiens, UniProt Q9HC29); experiment: NOD2 signaling inhibitors, cell-based, luminescence, uHTS, HEK293 (AID 1566); type: functional
Sequence of Nucleotide-binding oligomerization domain-containing protein 2 (Q9HC29 whole entry, the tested form may be a part): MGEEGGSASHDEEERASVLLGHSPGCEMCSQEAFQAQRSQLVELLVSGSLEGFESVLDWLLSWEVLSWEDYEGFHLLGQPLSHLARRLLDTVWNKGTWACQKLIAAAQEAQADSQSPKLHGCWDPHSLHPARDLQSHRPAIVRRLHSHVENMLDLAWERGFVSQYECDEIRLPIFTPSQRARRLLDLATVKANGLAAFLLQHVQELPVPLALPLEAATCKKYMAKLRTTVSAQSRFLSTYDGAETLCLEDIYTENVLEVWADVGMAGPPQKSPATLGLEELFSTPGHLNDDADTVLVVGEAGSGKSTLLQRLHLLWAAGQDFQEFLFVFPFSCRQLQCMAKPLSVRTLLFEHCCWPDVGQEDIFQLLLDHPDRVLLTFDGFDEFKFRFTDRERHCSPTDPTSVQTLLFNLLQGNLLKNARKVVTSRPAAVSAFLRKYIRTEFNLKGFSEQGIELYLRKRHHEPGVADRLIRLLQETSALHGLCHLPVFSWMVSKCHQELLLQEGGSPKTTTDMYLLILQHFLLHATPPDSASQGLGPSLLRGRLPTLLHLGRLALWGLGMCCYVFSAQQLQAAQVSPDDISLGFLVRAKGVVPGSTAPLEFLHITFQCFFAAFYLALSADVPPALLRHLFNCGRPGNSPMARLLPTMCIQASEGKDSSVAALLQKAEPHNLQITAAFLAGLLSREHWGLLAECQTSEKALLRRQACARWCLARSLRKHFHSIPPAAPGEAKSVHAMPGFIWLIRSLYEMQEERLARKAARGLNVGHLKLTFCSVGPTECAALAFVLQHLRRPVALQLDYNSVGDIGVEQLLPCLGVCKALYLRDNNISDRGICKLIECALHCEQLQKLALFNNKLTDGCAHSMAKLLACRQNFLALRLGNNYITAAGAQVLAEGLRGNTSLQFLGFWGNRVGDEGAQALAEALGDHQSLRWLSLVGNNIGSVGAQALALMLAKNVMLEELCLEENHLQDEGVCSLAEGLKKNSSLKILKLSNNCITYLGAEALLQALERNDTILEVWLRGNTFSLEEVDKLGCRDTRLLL

[17] = Shn3 3'UTR reporter inhibitors, dose response, cell-based, Clone20 osteoblasts, firefly luciferase, cherry-picked (AID 624132); type: functional;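 also: firefly luciferase luminescence from reporter carrying the Shn3 3'UTR in osteoblasts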
HEK293 [18] = experiment: inhibitors of LMP1-driven NF-kB reporter, dose response, cell-based, HEK293, luciferase, cherry-pick (AID 588343); type: functional; details: Homo sapiens
[19] = inhibitors of intracellular T. cruzi replication, confirmation, NIH3T3 host cells, beta-gal luminescence (AID 2044); type: functional, cell-based;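 also: intracellular parasites grown in NIH/3T3 mouse fibroblasts as host cells; luminescent beta-galactosidase reporter signal from transgenic T. cruzi replicating inside host cells; inhibitors lower the luminescence signal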
[20] = cytotoxicity toward NIH3T3 fibroblasts, dose response, counter-screen, cell-based, ATP luminescence, mouse fibroblasts (AID 2010); type: functional;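 also: cells exposed to compound for about 90 hours before reading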
HEK293 [21] = experiment: cells; type: functional, cell-based; details: Homo sapiens; remark: listed apart in the source
HEK293 [22] = experiment: NOD2 signaling inhibitors in MDP-stimulated cells, cell-based, uHTS, luminescence (AID 2001); type: functional; details: Homo sapiens
[23] = cytotoxicity in HEK-293T cells, dose response, cytotoxicity control for TCR NF-kB inhibitor project, luminescence, T-cell screen hits (AID 489026); type: functional, cell-based;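 also: cells exposed to compound about 14 hours before the viability readout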
[24] = target: T7, Kappa-type opioid receptor (Homo sapiens, UniProt P41145); type: functional
T7 sequence (P41145 whole entry): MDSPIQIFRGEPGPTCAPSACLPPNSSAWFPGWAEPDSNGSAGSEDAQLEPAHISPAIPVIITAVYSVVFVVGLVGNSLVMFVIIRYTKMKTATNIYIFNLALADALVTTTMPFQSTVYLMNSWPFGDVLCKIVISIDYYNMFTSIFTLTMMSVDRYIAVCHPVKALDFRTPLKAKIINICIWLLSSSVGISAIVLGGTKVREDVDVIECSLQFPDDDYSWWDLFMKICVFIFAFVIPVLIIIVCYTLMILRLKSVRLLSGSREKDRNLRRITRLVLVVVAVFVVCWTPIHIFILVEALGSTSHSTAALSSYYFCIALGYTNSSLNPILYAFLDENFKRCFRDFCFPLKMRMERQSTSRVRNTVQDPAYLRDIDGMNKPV

INS1 = experiment: beta cell apoptosis inhibitors, cytokine rescue, dose response, luminescence, retest (AID 449756); type: functional, cell-based; details: Rattus norvegicus;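 also: cell death triggered by IL-1 beta plus TNF-alpha plus IFN-gamma mixture; protective hits raise ATP signal compared with cytokine alone wells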
HEK293 [25] = experiment: NOD1 signaling inhibitors, primary screen, cell-based, luminescence, uHTS (AID 1578); type: functional; details: Homo sapiens
[26] = control 3'UTR Renilla luciferase suppression, dose response, counter-screen for Shn3 inhibitor project, cell-based, Clone20-Shn3RL, cherry-picked (AID 624133); type: functional
HEK293 [27] = experiment: cells; type: functional, cell-based; details: Homo sapiens; remark: listed apart in the source
[28] = target: T7, Kappa-type opioid receptor; type: functional; remark: listed apart in the source
[29] = HepG2 cell cytotoxicity, dose response, cytotoxicity control for Shn3 inhibitor project, CellTiter-Glo, cherry-picked (AID 624134); type: functional, cell-based

CCCCCCCCCCOC(=O)Cn1c(COc2ccc(Cl)cc2)[n+](C)c2ccccc21
inactive: IC50 [7] > 100 µM
active: IC50 [1] 6.53 µM | IC50 (Prothrombin) 44.6 µM | AC50 [2] 7.08 µM | AC50 [3] 7.94 µM | IC50 [4] 6.71 µM | EC50 [5] 12.9 µM | IC50 [6] 8.57 µM | IC50 (Bcl-2-related protein A1) 10.1 µM | IC50 [9] 19.1 µM
> 120 µM (not active): EC50 [8]

COc1ccc(Oc2c(Cl)cnn(CC(=O)OC(C)(C)C)c2=O)cc1
inactive: IC50 [10] 14 µM | IC50 [11] ~19.9 µM

Nc1c(Cl)cc(C2=NCCn3nc4ccccc4c32)cc1Cl
active: EC50 [12] 3.99 µM

CCOc1ccc(Oc2c(SC)cnn(Cc3cccc4ccccc34)c2=O)cc1
inactive: IC50 [10] > 20 µM | IC50 [11] 19.6 µM

O=C(Nc1nc(-c2ccccn2)cs1)c1ccc(Cl)s1
< 4.49: pIC50 [24]
inactive: IC50 (HEK293 [14]) > 20 µM | EC50 (Beta-galactosidase) > 31.5 µM | EC50 [16] > 20 µM | IC50 (HEK293 [21]) > 20 µM | IC50 [23] 36.8 µM | IC50 [28] > 31.5 µM
inconclusive: EC50 [13] 2.06 µM
active: AC50 [15] 0.949 µM | AC50 [17] 0.817 µM | AC50 (HEK293 [18]) 0.515 µM | EC50 [19] 0.279 µM | EC50 [20] 0.506 µM | IC50 (HEK293 [22]) 4.18 µM | AC50 (INS1) 0.759 µM | EC50 (HEK293 [25]) 7.06 µM | AC50 [26] 0.74 µM | IC50 (HEK293 [27]) 8.39 µM | AC50 [29] 47.5 µM
